Laboratory results published in patent US20220226265A1, “METHODS OF CONTROLLING MYOCARDIAL BLOOD FLOW” (UNIVERSITY OF LOUISVILLE RESEARCH FOUNDATION, INC., priority 2021, published 2022).

System: wild type and Kvβ-null mice
Assay: Echocardiographic cardiac function during intravenous norepinephrine infusion
Assay type: in vivo, mouse
Settings: for ejection fraction: after 1 min of 5 μg/kg·min−1 norepinephrine infusion
Text: In vivo measurements of cardiac function and myocardial blood flow: Mice were anesthetized with 3% isoflurane and supplemental O2, administered (1 L·min^−1) in a small induction chamber. After induction, the mice were placed on a controlled heating table in a supine position. Anesthesia was maintained throughout the procedure by delivery of 1-2% isoflurane and supplemental O2 (0.5 L·min^−1). The extremities were secured to the surgical table by tape and a lubricated probe was inserted rectally to monitor body temperature. The chest, neck, and hind limb hair were then removed using a depilatory agent, the skin was rinsed with warm water, and the neck area was disinfected with 70% ethanol/betadine and an incision (10-15 mm) was made at the right side of the neck. For infusion of contrast agent and drugs, the jugular vein was isolated using blunt forceps and catheterized with sterilized PE-50 polyethylene tubing (pre-filled with heparinized saline; 50 U·ml^−1). The jugular vein catheter was then secured in place with two sutures. For continuous measurement of arterial blood pressure, a small incision was made on the hind limb and the femoral artery was isolated and cannulated with a 1.2 F pressure catheter (SciSense, Transonic Systems, Inc., Ithaca, N.Y., USA) connected to a PowerLab data acquisition system (ADInstruments, Colorado Springs, Colo., USA) through a SP200 pressure interface unit designed to measure arterial blood pressure and heart rate. After cannulation, the pressure catheter was advanced 10 mm into the abdominal aorta.
Ultrasound gel was centrifuged in a 60 mL syringe (1500×g, 10 min) to remove air bubbles, warmed to 37° C., and applied to the chest. Cardiac function was measured by M-mode transthoracic echocardiographic imaging of the parasternal short axis view, mid-papillary level using a Vevo 2100 high resolution echocardiography imaging system (FujiFilm VisualSonics, Toronto, ON, Canada). Contrast echocardiography was performed by using Siemens ultrasound imaging system (Sequoia Acuson C512; Siemens Medical Systems USA Inc., Mountain View, Calif.) with a high-frequency linear-array probe (15L8) held in place by a 3D railing system. For myocardial contrast echocardiography (MCE), we administered lipid-shelled microbubbles, which were freshly prepared by sonication of a decafluorobutane gas-saturated aqueous suspension of distearoylphosphatidylcholine (2 mg/mL) and polyoxyethylene-40-stearate (1 mg/mL). The contrast agent was intravenously infused via the jugular vein catheter at a rate of ˜5×10^5 microbubbles·min-1 (20 μl·min^−1) and MCE was performed by administering a multi-pulse contrast-specific pulse sequence to detect non-linear microbubble contrast signal at low mechanical index (MI=0.18-0.25). Data were acquired during and after a 1.9 MI pulse sequence to destruct microbubbles within the acoustic field, followed by imaging of replenished contrast signal.
Measurements of cardiac function, myocardial perfusion, and arterial blood pressure were performed at baseline, after administration of hexamethonium (5 mg·kg^−1, i.v.), and following successive doses of norepinephrine (0.5, 1.0, 2.5, and 5.0 μg·kg^−1·min^−1; 3 min duration each dose, followed by 3-5 min washout). […] All data analyses and calculations of cardiac workload (double product of mean arterial pressure and heart rate), cardiac function, myocardial blood flow, and mean arterial pressure were performed offline. For pressure measurements, we used Lab Chart 8 software (ADInstruments, Colorado Springs, Colo., USA). Left ventricular volume at end diastole (LVEDV) and end systole (LVESV), as well left ventricular internal diameter at end diastole (LVID,d) and end systole (LVID,s) were measured at steady state after drug infusions. […]

[1] = NE 0.5 μg/kg·min−1 i.v., Kvβ1.1−/− mice
[2] = NE 0.5 μg/kg·min−1 i.v., Kvβ2−/− mice
[3] = NE 0.5 μg/kg·min−1 i.v., SM22α-rtTA mice
[4] = NE 0.5 μg/kg·min−1 i.v., SM22α-rtTA:TRE-Kvβ1 mice
[5] = NE 0.5 μg/kg·min−1 i.v., Wild type (129SvEv) mice
[6] = NE 0.5 μg/kg·min−1 i.v., Wild type (C57B16N) mice
[7] = NE 1 μg/kg·min−1 i.v., Kvβ1.1−/− mice
[8] = NE 1 μg/kg·min−1 i.v., Kvβ2−/− mice
[9] = NE 1 μg/kg·min−1 i.v., SM22α-rtTA mice
[10] = NE 1 μg/kg·min−1 i.v., SM22α-rtTA:TRE-Kvβ1 mice
[11] = NE 1 μg/kg·min−1 i.v., Wild type (129SvEv) mice
[12] = NE 1 μg/kg·min−1 i.v., Wild type (C57B16N) mice
[13] = NE 2.5 μg/kg·min−1 i.v., Kvβ1.1−/− mice
[14] = NE 2.5 μg/kg·min−1 i.v., Kvβ2−/− mice
[15] = NE 2.5 μg/kg·min−1 i.v., SM22α-rtTA mice
[16] = NE 2.5 μg/kg·min−1 i.v., SM22α-rtTA:TRE-Kvβ1 mice
[17] = NE 2.5 μg/kg·min−1 i.v., Wild type (129SvEv) mice
[18] = NE 2.5 μg/kg·min−1 i.v., Wild type (C57B16N) mice
[19] = NE 5.0 μg/kg·min−1 i.v., Kvβ1.1−/− mice
[20] = NE 5.0 μg/kg·min−1 i.v., Kvβ2−/− mice
[21] = NE 5.0 μg/kg·min−1 i.v., SM22α-rtTA mice
[22] = NE 5.0 μg/kg·min−1 i.v., SM22α-rtTA:TRE-Kvβ1 mice
[23] = NE 5.0 μg/kg·min−1 i.v., Wild type (129SvEv) mice
[24] = NE 5.0 μg/kg·min−1 i.v., Wild type (C57B16N) mice

NC[C@H](O)c1ccc(O)c(O)c1 [norepinephrine]
EDV (left ventricular end diastolic volume) [1]: 53.5 ± 4.9 µL | EF (ejection fraction) [1]: 61.4 ± 4.2% | ESV (left ventricular end systolic volume) [1]: 21.3 ± 3.9 µL | FS (fractional shortening) [1]: 32.5 ± 2.8% | SV (stroke volume) [1]: 32.2 ± 1.8 µL | EDV (left ventricular end diastolic volume) [2]: 48.3 ± 2.7 µL | EF (ejection fraction) [2]: 71.9 ± 3.3% | ESV (left ventricular end systolic volume) [2]: 13.6 ± 1.6 µL | FS (fractional shortening) [2]: 40.7 ± 2.8% | SV (stroke volume) [2]: 34.7 ± 2.4 µL | EDV (left ventricular end diastolic volume) [3]: 43.6 ± 2.9 µL | EF (ejection fraction) [3]: 82.3 ± 3.3% | ESV (left ventricular end systolic volume) [3]: 8.1 ± 2.0 µL | FS (fractional shortening) [3]: 50.9 ± 3.6% | SV (stroke volume) [3]: 35.4 ± 1.6 µL | EDV (left ventricular end diastolic volume) [4]: 45.9 ± 3.8 µL | EF (ejection fraction) [4]: 62.7 ± 6.0% | ESV (left ventricular end systolic volume) [4]: 17.7 ± 3.6 µL | FS (fractional shortening) [4]: 33.9 ± 4.1% | SV (stroke volume) [4]: 28.2 ± 2.7 µL | EDV (left ventricular end diastolic volume) [5]: 50.5 ± 7.8 µL | EF (ejection fraction) [5]: 63.5 ± 2.5% | ESV (left ventricular end systolic volume) [5]: 19.4 ± 3.7 µL | FS (fractional shortening) [5]: 34.2 ± 1.9% | SV (stroke volume) [5]: 31.2 ± 4.2 µL | EDV (left ventricular end diastolic volume) [6]: 57.8 ± 2.3 µL | EF (ejection fraction) [6]: 71.64 ± 2.2% | ESV (left ventricular end systolic volume) [6]: 16.37 ± 1.4 µL | FS (fractional shortening) [6]: 40.48 ± 2.0% | SV (stroke volume) [6]: 41.46 ± 2.3 µL | EDV (left ventricular end diastolic volume) [7]: 47.6 ± 8.1 µL | EF (ejection fraction) [7]: 70.9 ± 3.1% | ESV (left ventricular end systolic volume) [7]: 14.1 ± 3.4 µL | FS (fractional shortening) [7]: 40.1 ± 2.4% | SV (stroke volume) [7]: 33.5 ± 5.2 µL | EDV (left ventricular end diastolic volume) [8]: 48.7 ± 4.6 µL | EF (ejection fraction) [8]: 73.1 ± 1.8% | ESV (left ventricular end systolic volume) [8]: 13.3 ± 1.8 µL | FS (fractional shortening) [8]: 41.4 ± 1.6% | SV (stroke volume) [8]: 42.7 ± 8.2 µL | EDV (left ventricular end diastolic volume) [9]: 49.4 ± 2.9 µL | EF (ejection fraction) [9]: 80.6 ± 4.2% | ESV (left ventricular end systolic volume) [9]: 10.0 ± 2.6 µL | FS (fractional shortening) [9]: 49.6 ± 4.3% | SV (stroke volume) [9]: 39.4 ± 1.8 µL | EDV (left ventricular end diastolic volume) [10]: 46.9 ± 4.9 µL | EF (ejection fraction) [10]: 74.2 ± 3.9% | ESV (left ventricular end systolic volume) [10]: 12.7 ± 3.2 µL | FS (fractional shortening) [10]: 42.7 ± 3.3% | SV (stroke volume) [10]: 34.2 ± 2.0 µL | EDV (left ventricular end diastolic volume) [11]: 46.7 ± 7.4 µL | EF (ejection fraction) [11]: 70.7 ± 5.3% | ESV (left ventricular end systolic volume) [11]: 14.7 ± 4.3 µL | FS (fractional shortening) [11]: 40.1 ± 4.6% | SV (stroke volume) [11]: 32.0 ± 3.7 µL | EDV (left ventricular end diastolic volume) [12]: 61.6 ± 3.2 µL | EF (ejection fraction) [12]: 72.40 ± 1.2% | ESV (left ventricular end systolic volume) [12]: 17.12 ± 1.3 µL | FS (fractional shortening) [12]: 40.97 ± 1.0% | SV (stroke volume) [12]: 44.52 ± 2.3 µL | EDV (left ventricular end diastolic volume) [13]: 41.5 ± 8.8 µL | EF (ejection fraction) [13]: 78.2 ± 2.0% | ESV (left ventricular end systolic volume) [13]: 9.4 ± 2.7 µL | FS (fractional shortening) [13]: 46.0 ± 1.8% | SV (stroke volume) [13]: 32.1 ± 6.1 µL | EDV (left ventricular end diastolic volume) [14]: 52.8 ± 3.5 µL | EF (ejection fraction) [14]: 70.1 ± 2.6% | ESV (left ventricular end systolic volume) [14]: 15.7 ± 1.6 µL | FS (fractional shortening) [14]: 39.0 ± 2.2% | SV (stroke volume) [14]: 37.1 ± 2.8 µL | EDV (left ventricular end diastolic volume) [15]: 51.5 ± 2.8 µL | EF (ejection fraction) [15]: 77.4 ± 5.1% | ESV (left ventricular end systolic volume) [15]: 12.2 ± 3.1 µL | FS (fractional shortening) [15]: 46.8 ± 4.8% | SV (stroke volume) [15]: 39.3 ± 2.1 µL | EDV (left ventricular end diastolic volume) [16]: 47.5 ± 5.5 µL | EF (ejection fraction) [16]: 74.2 ± 5.7% | ESV (left ventricular end systolic volume) [16]: 13.2 ± 4.3 µL | FS (fractional shortening) [16]: 43.1 ± 4.8% | SV (stroke volume) [16]: 34.3 ± 1.4 µL | EDV (left ventricular end diastolic volume) [17]: 48.8 ± 6.0 µL | EF (ejection fraction) [17]: 67.9 ± 2.7% | ESV (left ventricular end systolic volume) [17]: 16.0 ± 2.7 µL | FS (fractional shortening) [17]: 37.4 ± 2.1% | SV (stroke volume) [17]: 32.8 ± 3.6 µL | EDV (left ventricular end diastolic volume) [18]: 62.8 ± 3.7 µL | EF (ejection fraction) [18]: 72.88 ± 1.8% | ESV (left ventricular end systolic volume) [18]: 17.22 ± 1.7 µL | FS (fractional shortening) [18]: 41.47 ± 1.5% | SV (stroke volume) [18]: 45.63 ± 2.6 µL | EDV (left ventricular end diastolic volume) [19]: 45.7 ± 11.9 µL | EF (ejection fraction) [19]: 79.1 ± 2.7% | ESV (left ventricular end systolic volume) [19]: 10.4 ± 3.4 µL | FS (fractional shortening) [19]: 47.1 ± 2.4% | SV (stroke volume) [19]: 35.3 ± 8.5 µL | EDV (left ventricular end diastolic volume) [20]: 54.6 ± 4.5 µL | EF (ejection fraction) [20]: 67.5 ± 3.8% | ESV (left ventricular end systolic volume) [20]: 18.5 ± 3.1 µL | FS (fractional shortening) [20]: 37.3 ± 3.0% | SV (stroke volume) [20]: 36.1 ± 2.3 µL | EDV (left ventricular end diastolic volume) [21]: 56.9 ± 3.9 µL | EF (ejection fraction) [21]: 77.7 ± 5.8% | ESV (left ventricular end systolic volume) [21]: 13.4 ± 3.9 µL | FS (fractional shortening) [21]: 48.1 ± 6.0% | SV (stroke volume) [21]: 43.5 ± 3.1 µL | EDV (left ventricular end diastolic volume) [22]: 49.3 ± 5.7 µL | EF (ejection fraction) [22]: 69.9 ± 5.0% | ESV (left ventricular end systolic volume) [22]: 15.6 ± 3.9 µL | FS (fractional shortening) [22]: 39.3 ± 4.2% | SV (stroke volume) [22]: 33.7 ± 2.6 µL | EDV (left ventricular end diastolic volume) [23]: 56.4 ± 5.0 µL | EF (ejection fraction) [23]: 69.1 ± 2.4% | ESV (left ventricular end systolic volume) [23]: 17.3 ± 1.6 µL | FS (fractional shortening) [23]: 38.3 ± 1.9% | SV (stroke volume) [23]: 39.1 ± 4.1 µL | EDV (left ventricular end diastolic volume) [24]: 66.1 ± 4.4 µL | EF (ejection fraction) [24]: 73.65 ± 2.4% | ESV (left ventricular end systolic volume) [24]: 17.85 ± 2.3 µL | FS (fractional shortening) [24]: 42.39 ± 2.1% | SV (stroke volume) [24]: 48.26 ± 2.7 µL | ejection fraction (Kvβ2−/− mice): 71±1.7% | ejection fraction (WT animals): 84±2.2%
